This passage reports Ki and IC50 results from ChEMBL document CHEMBL2074392, “Three-dimensional quantitative structure-activity relationships of inhibitors of P-glycoprotein” (Mol Pharmacol, 2002).

The structures appear in SMILES notation.

Format in all cases: functional, cell-based
Experiment [1] has as its target T1, ATP-dependent translocase ABCB1 (Homo sapiens, UniProt P08183). The experiment can be described thus: TP_TRANSPORTER: increase in Calcein-AM intracellular accumulation in MDR1-expressing LLC-PK1 cells.
The target of experiment [2] is T1, ATP-dependent translocase ABCB1. Briefly: TP_TRANSPORTER: increase in Vinblastine intracellular accumulation in MDR1-expressing LLC-PK1 cells.
Experiment [3] has the same target. The experiment can be described thus: TP_TRANSPORTER: inhibition of Digoxin transepithelial transport (basal to apical) (Digoxin: 5 uM) in Caco-2 cells. For orientation: Passage across Caco-2 layers is used to estimate intestinal permeability.

T1 sequence (P08183 whole entry): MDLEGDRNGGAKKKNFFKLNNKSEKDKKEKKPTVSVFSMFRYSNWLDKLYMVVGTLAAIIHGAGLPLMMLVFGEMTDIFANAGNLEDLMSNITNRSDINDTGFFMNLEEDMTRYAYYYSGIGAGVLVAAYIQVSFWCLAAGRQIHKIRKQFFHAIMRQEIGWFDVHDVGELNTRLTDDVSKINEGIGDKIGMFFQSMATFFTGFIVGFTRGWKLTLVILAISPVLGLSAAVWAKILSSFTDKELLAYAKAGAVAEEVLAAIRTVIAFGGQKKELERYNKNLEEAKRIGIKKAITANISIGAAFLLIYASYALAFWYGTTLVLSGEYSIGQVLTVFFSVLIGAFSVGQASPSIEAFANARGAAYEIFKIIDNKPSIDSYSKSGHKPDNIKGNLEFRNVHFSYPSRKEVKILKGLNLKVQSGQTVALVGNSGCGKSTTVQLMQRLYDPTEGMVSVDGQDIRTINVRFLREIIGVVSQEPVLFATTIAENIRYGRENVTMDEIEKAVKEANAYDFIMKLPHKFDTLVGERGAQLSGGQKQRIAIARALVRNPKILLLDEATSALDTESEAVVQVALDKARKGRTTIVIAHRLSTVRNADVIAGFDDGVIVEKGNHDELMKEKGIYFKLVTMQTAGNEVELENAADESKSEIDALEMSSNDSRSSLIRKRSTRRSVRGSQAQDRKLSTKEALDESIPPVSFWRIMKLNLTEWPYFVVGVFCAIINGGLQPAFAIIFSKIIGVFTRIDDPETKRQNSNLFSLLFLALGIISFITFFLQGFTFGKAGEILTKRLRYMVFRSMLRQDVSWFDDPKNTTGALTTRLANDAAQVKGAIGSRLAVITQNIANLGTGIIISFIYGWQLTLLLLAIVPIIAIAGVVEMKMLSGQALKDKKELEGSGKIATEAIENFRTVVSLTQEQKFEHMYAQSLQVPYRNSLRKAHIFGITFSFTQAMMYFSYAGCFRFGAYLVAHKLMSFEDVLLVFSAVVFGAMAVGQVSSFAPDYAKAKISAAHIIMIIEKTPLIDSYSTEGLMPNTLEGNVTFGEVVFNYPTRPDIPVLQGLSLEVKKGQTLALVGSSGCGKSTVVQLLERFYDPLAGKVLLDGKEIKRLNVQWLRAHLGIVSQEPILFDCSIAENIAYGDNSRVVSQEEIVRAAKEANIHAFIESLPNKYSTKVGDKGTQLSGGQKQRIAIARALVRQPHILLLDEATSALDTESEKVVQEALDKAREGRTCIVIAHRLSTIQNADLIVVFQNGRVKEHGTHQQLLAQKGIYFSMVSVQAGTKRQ

Turning to `CC(C)C[C@H]1C(=O)N2CCC[C@H]2[C@]2(O)O[C@](NC(=O)[C@@H]3C=C4c5cccc6[nH]cc(c56)C[C@H]4N(C)C3)(C(C)C)C(=O)N12` [ERGOCRYPTINE], the Ki in experiment [1] was 12.2 µM; in experiment [2], 6.43 µM.
On to `C[C@@H](CO)NC(=O)[C@@H]1C=C2c3cccc4[nH]cc(c34)C[C@H]2N(C)C1` [ERGONOVINE], for which the results for the Ki in experiment [1] and in experiment [2] were 115 µM and above 100 µM, respectively.
On to `CC(C)[C@@]1(NC(=O)[C@@H]2C=C3c4cccc5[nH]cc(c45)C[C@H]3N(C)C2)O[C@@]2(O)[C@@H]3CCCN3C(=O)[C@H](Cc3ccccc3)N2C1=O` [ERGOCRISTINE], for which the inhibition constant (Ki) is 42.8 µM in experiment [1] and 13.3 µM in experiment [2].
For the compound `COC(=O)[C@H]1[C@H]2C[C@@H]3c4[nH]c5cc(OC)ccc5c4CCN3C[C@H]2C[C@@H](OC(=O)c2cc(OC)c(OC)c(OC)c2)[C@@H]1OC` [RESERPINE], the inhibition constant (Ki) in experiment [1] is 12.2 µM; in experiment [2] it was 0.97 µM.
The corresponding values for `CC(C)C[C@H]1C(=O)N2CCC[C@H]2[C@]2(O)O[C@](NC(=O)[C@@H]3C=C4c5cccc6[nH]c(Br)c(c56)C[C@H]4N(C)C3)(C(C)C)C(=O)N12` [BROMOCRIPTINE] are 2.81 µM and 3.96 µM.
Take `CN1C[C@H](C(=O)N[C@]2(C)O[C@@]3(O)[C@@H]4CCCN4C(=O)[C@H](Cc4ccccc4)N3C2=O)C[C@@H]2c3cccc4[nH]cc(c34)C[C@H]21` [DIHYDROERGOTAMINE]: the inhibition constant Ki was above 1000 µM in experiment [1] and 120 µM in experiment [2].
With `COc1ccc(CCCN2CCC(Cc3ccccc3)CC2)cc1OC`, the IC50 in experiment [3] is 2.3 µM.
For the compound `CC(C)[C@H]1C(=O)N2CCC[C@H]2[C@]2(O)O[C@](NC(=O)[C@@H]3C=C4c5cccc6[nH]cc(c56)C[C@H]4N(C)C3)(C(C)C)C(=O)N12` [ERGOCORNINE], the Ki was 105 µM in experiment [1] and 24.5 µM in experiment [2].
For `CC(C)C[C@H]1C(=O)N2CCC[C@H]2[C@]2(O)O[C@](NC(=O)[C@@H]3C[C@@H]4c5cccc6[nH]cc(c56)C[C@H]4N(C)C3)(C(C)C)C(=O)N12` [DIHYDROERGOCRYPTINE], in that order: 360 µM and 19.8 µM.
The corresponding values for `CN1C[C@H](C(=O)N[C@]2(C)O[C@@]3(O)[C@@H]4CCCN4C(=O)[C@H](Cc4ccccc4)N3C2=O)C=C2c3cccc4[nH]cc(c34)C[C@H]21` [ERGOTAMINE] are 98.9 µM and 14.2 µM.
Take `CC(C)[C@@]1(NC(=O)[C@@H]2C[C@@H]3c4cccc5[nH]cc(c45)C[C@H]3N(C)C2)O[C@@]2(O)[C@@H]3CCCN3C(=O)[C@H](Cc3ccccc3)N2C1=O` [DIHYDROERGOCRISTINE]: the Ki was 511 µM in experiment [1] and 16 µM in experiment [2].
With `OC(Cn1cncn1)(Cn1cncn1)c1ccc(F)cc1F` [FLUCONAZOLE], the values for the Ki in experiment [1] and in experiment [2] were above 1000 µM and above 400 µM, respectively.

What is called Ki is the dissociation constant of the complex between target and ligand, obtained from inhibition or displacement. As usually defined, the IC50 is the concentration that gives 50% inhibition.
